From US20090023681A1, “METHOD OF USING BETA-GLUCAN FROM SCHIZOPHYLLUM COMMUNE” (priority 2007, published 2009)

Legend:
Staphylococcus aureus = assay: Bacterial inhibition in mouse model, survival after S. aureus septic shock; type: in vivo, mice; settings: 1 mg/mouse peritoneally 3 days and 1 day prior, 1×10^9 S. aureus intravenously, FIG. 6
Protocol: Skin is directly vulnerable to or may suffer from single infection with various bacteria and about 90% of atopic patients suffer from secondary infections with bacteria such as Staphylococcus spp. Therefore, there is a need for bacterial inhibition and amelioration of infectious diseases. Prior to the test of skin itching due to bacterial infections, this experiment was carried out to test whether beta-glucan has direct synergistic effects on antibacterial activity and antibiotic activity in vivo, using a mouse model.
Erythromycin was used as an antibiotic and Staphylococcus aureus, one of staphylococci as a major cause of skin infections, was used as the test bacteria. Each experimental group was composed of 6 to 7 mice per group. Experiments were carried out as follows.
1) 3 days and I day prior to bacterial challenge, 1 mg/mouse of saline, antibiotic, beta-glucan, or a beta-glucan/antibiotic mixture was peritoneally injected into mice.
2) 30 min prior to bacterial administration, 18 mg/kg of the antibiotic was subcutaneously injected into the mice.
3) Then, 1×10^9 of bacteria (S. aureus) were intravenously injected to induce septic shock.
4) Finally, a survival rate (%) of the animals was periodically confirmed every 12 hours.

hairless mice = assay: Skin moisture loss (TEWL) recovery after acetone-induced skin barrier damage; type: in vivo
Protocol: This experiment was carried out to evaluate effects of beta-glucan on recovery of a skin barrier function loss due to long-term skin damage.
A barrier function of dorsal skin of experimental animals was damaged by periodic application of acetone to the dorsal parts of young hairless mice (10 weeks old) for 3 consecutive days three times a day. Trans-epidermal water loss (TEWL) was measured in the experimental animals. For only the mice having skin with more than 40 g/m′/hr of TEWL, a vehicle (propylene glycol:water=5:5) and a sample containing 0.2% beta-glucan of Example 1 were applied at a dose of 200 μl per 5 cm^2 of a skin area for 3 consecutive days three times a day, and TEWL was measured periodically.

human skin cells = assay: Synthesis of filaggrin by skin cells, Western blotting; type: cell-based; settings: beta-glucan 0.01%, 2 days treatment, FIG. 4
Protocol: In order to examine production of a natural moisturizing factor (NMF) having an important effect on skin moisturization, synthesis of filaggrin, which is a precursor of the natural moisturizing factor, was tested on human skin cells. First, skin cells were introduced into a culture flask and allowed to adhere to the bottom of the flask. Then, cells were cultured for 2 days by co-addition of 35-S-methionine upon treatment of a test material. After the cultivation was complete, the culture medium was removed and the cells were dissolved in phosphate buffered saline (PBS) containing 2% sodium dodecyl sulfate and 20 mM dithiothreitol (DTT). After the skin cells were cultured, treatment of the cells with the test material was carried out for 2 days. After the test material treatment was complete, the medium was removed, and only the cells were taken and disrupted using an ultrasonic disintegrator to thereby obtain only a protein. Using the thus-obtained protein, an amount of synthesized filaggrin was determined by Western blotting analysis. FIG. 4 is a graph showing an expression amount of filaggrin by Western blotting analysis. Clofibrate was used as a positive control, and beta-glucan was added to a concentration of 0.01% for the test.

[1] = at 48 hours after the bacterial infection
[2] = one week after the bacterial infection

Molecule	survival rate (Staphylococcus aureus; [1])	survival rate (Staphylococcus aureus; [2])	recovery from skin barrier damage compared to vehicle group (hairless mice; 0.2% beta-glucan of Example 1, 200 μl per 5 cm^2, 3 days three times a day, FIG. 5)	recovery of the trans-epidermal water loss (hairless mice; after 10 hours, 0.2% beta-glucan of Example 1 topical)	synthesis of filaggrin in skin cells (human skin cells)
CC[C@H]1OC(=O)[C@H](C)[C@@H](O[C@H]2C[C@@](C)(OC)[C@@H](O)[C@H](C)O2)[C@H](C)[C@@H](O[C@@H]2O[C@H](C)C[C@H](N(C)C)[C@H]2O)[C@](C)(O)C[C@@H](C)C(=O)[C@H](C)[C@@H](O)[C@]1(C)O [antibiotic, Erythromycin, reference compound]	all killed	all dead			
beta-1,6-branched-beta-1,3-glucan [beta-glucan]	40%	all dead	rapid recovery	≥ 50%	significantly increased
